Assay results: US4822606A, “Immunosuppressive synthetic peptides and analogs thereof based on retroviral envelope sequences” (Duke University, priority 1986, dated 1989)
Ends that are not written are not given here.

What was measured:
[1] = system: lymphocytes from two non-related individuals; experiment: Human two-way mixed leukocyte culture (MLC); assay type: cell-based; conditions: coupled to BSA; for average inhibition of human two-way MLC: 4 experiments, 6-day culture; for average inhibition of human two-way MLC (mean±SEM): four experiments, final 24 h of 6 day culture
Description: Fifty μl of RPMI containing 1×10^5 lymphocytes from each of two non-related individuals was added to each well of a 96 well tissue culture plate. An additional 50 μl of RPMI was added and cultures were incubated at 37° C. in humidified 5% CO2 for 5 days. Fifty μl of RPMI containing either peptide or no addition was added for an additional 24 hr. During the final 4 hr of incubation each well was incubated with 25 μl of RPMI containing 0.5 μCi of ^3 H-thymidine and incorporated radionucleotide determined as above.

[2] = system: OKT3-stimulated human lymphocytes; experiment: Human lymphocyte proliferative response to OKT3 antibody; assay type: cell-based; conditions: 5 experiments, 3 days, coupled to BSA
Description: (§1) One hundred μl of RPMI containing 2×10^5 lymphocytes was added to each well of a 96 well tissue culture plate. Fifty μl of RPMI containing either peptide or no addition was added for 2 hr at 37° C followed by the addition of 50 μl of RPMI containing nothing or Con A (40 μg/ml) or OKT3 antibody (1:1000 dilution). The cultures were incubated for 72 hr at 37° C. in 5% humidified CO2, pulsed with ^3 Hthymidine (0.,5 μCi/well, 4h.) and the incorporated radioactivity determined as described above. The concentration of OKT3 antibody used was previously determined to give 75-100% of a maximal response.

murine CTLL-2 cells = experiment: Murine cytotoxic T lymphocyte (CTLL-2) IL-2 dependent proliferation assay; assay type: cell-based; conditions: for average inhibition of CTLL-2 proliferation: CS-1 5 experiments, CS-3 4 experiments; for effect upon CTLL-2 cell proliferation: peptides coupled to BSA or control BSA, same conditions as the active peptide; for average inhibition of CTLL-2 cell proliferation: 24 experiments; for ^3H-TdR incorporation, CPM ± SD of quadruplicate samples: 24 h;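 on all read-outs here: CTLL-2 cells, 4 x 10^3 per well in 96-well plates with RPMI plus 6% FBS, proliferation read as cell-bound radioactivity counted by liquid scintillation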
Description: Fifty μ1 of RPMI (6% FBS, 0% IL-2) containing 4 x 10^3 CTLL-2 cells was added to each well of a 96 well tissue culture plate (Falcon, Oxnard, CA). To each well was then added 50 μl of RPMI 1640 containing 3% human IL-2 50 μl of either RPMI or RPMI containing synthetic peptides. Cultures were then incubated for 24 hours at 37° C. in humidified 5% CO^2 Fifty μl of RPMI containing 1 μCi of ^3 H-thymidine (6.7 Ci/mmole; New England Nuclear, Boston, MA) was added to each well for the final 4 hours of cultures. Cells were collected by filtration onto glass fiber filters and incorporated radioactivity determined by liquid scintillation spectrophotometry.

human lymphocytes = experiment: Binding of [^125 I]-CKS-17-BSA to cultured human lymphocytes; conditions: >1000 fold excess of unlabeled BSA conjugate
Description: Human mononuclear cells were stimulated for 3 days with PHA, washed free of lectin, cultured for 10 days with 10% of a human IL-2 preparation (electronucleonics) washed and resuspended to 5×10^6 cells/ml in phosphate-buffered-saline, pH 7.2 (PBS) containing 0.1% BSA. […] Binding was terminated and unbounded [^125 I]-CKS-17-BSA removed by rapid (30 sec.) centrifugation of the cells through oil. The cell associated radioactivity was measured using a gamma radiation counter.

human monocytes = experiment: Monocyte superoxide anion (O2^-) release; assay type: cell-based; conditions: WGA stimulated, peptide coupled to BSA, mean ± SE
Description: Monocytes were aliquoted into 12×75 mm polypropylene tubes (Falcon, Oxnard, CA) and incubated at 37° C. with test materials for twenty minutes. Cytochalasin E was then added to give a final concentration of 5 μg/ml. Ten minutes later 1.5 mg/ml cytochrome C was added followed immediately by wheat germ agglutinin (WGA) to a final concentration of 30 μg/ml (1). Supernatants were removed after 5 min. for determination of O2^- dismutase-inhibitable reduction of cytochrome C (2).

[3] = system: human lymphocytes stimulated with Con A; experiment: Human lymphocyte proliferative response to Con A; assay type: cell-based; conditions: addition 24 hr. after Con A; coupled to BSA
Immunization of rabbits = assay type: in vivo, rabbit
[4] = system: Balb/c and NIH/Swiss splenic lymphocytes; experiment: Murine two-way mixed leukocyte culture (MLC); assay type: cell-based; conditions: coupled to BSA; for average inhibition of murine MLC response (mean±SEM): 3 day MLC, three experiments
Description: Fifty μl RPMI containing 1×10^5 Balb/c splenic lymphocytes and 50 μl containing 1×10^5 NIH/Swiss splenic lymphocytes were added to each well of a 96 well tissue culture plate. An additional 50 μl of RPMI containing peptide or no additives was added to each well and the cultures incubated for 3 to 5 days at 37° C in humidified 5% CO^2 Cultures were pulsed for 4 hr with 0.5 μCi of ^3 H-thymidine in 50 μl of RPMI before harvesting onto glass fiber filters.

Balb/3T3 fibroblasts = experiment: Fibroblast proliferation, Balb/3T3; assay type: cell-based; conditions: 2 or 3 days, dilutions 1:20, 1:40, 1:80
Description: (§2) CKS-17 was added at concentrations of 1:20, 1:40 and 1:80 to monolayers of Balb/3T3 or NIH/3T3 fibroblasts (ca. 1/3 confluent) in 96 well tissue culture plates. The cells were grown for an addition 2-3 days and pulsed with 1.0 μCi ^3 H-thymidine./well for the final 24 hours. The culture media was removed and the cells washed once before disruption with 0.5 ml of 0.5 N NaOH. The radiolabeled nucleic acids were then harvested onto glass fibe filters as described.

[5] = system: human lymphocytes stimulated with Con A; experiment: Human lymphocyte proliferative response to Con A; assay type: cell-based; conditions: coupled to BSA
Description: as §1, with “Fifty μl of RPMI containing either peptide or no addition was added for 2 hr at 37° C followed by the addition of 50 μl of RPMI containing nothing or Con A (40 μg/ml) or OKT3 antibody (1:1000 dilution).” left out

[6] = system: T4^+ and T8^+ lymphocytes, B cells, NK cells and phagocytes; experiment: Preliminary double-labeling studies; assay type: binding
NIH/3T3 fibroblasts = experiment: Fibroblast proliferation, NIH/3T3; assay type: cell-based; conditions: 2 or 3 days, dilutions 1:20, 1:40, 1:80
Description: as §2

[7] = Expt. 1, dilution 1:40, coupled to BSA
[8] = Expt. 1, dilution 1:80, coupled to BSA
[9] = Expt. 2, dilution 1:40, coupled to BSA
[10] = Expt. 2, dilution 1:80, coupled to BSA

## AQNRRGLDLLFWEQGGL [CS-1]
[1]; 3.75 μM
  average inhibition of human two-way MLC: 51.8%
[1]; 7.5 μM
  average inhibition of human two-way MLC: 72.2%
[1]; 15 μM
  average inhibition of human two-way MLC: 81.8%
[2]; ca. 3.75 μM
  average inhibition of OKT3-stimulated lymphocyte proliferation: 26.8%
[2]; ca. 7.5 μM
  average inhibition of OKT3-stimulated lymphocyte proliferation: 42.8%
[2]; ca. 15 μM
  average inhibition of OKT3-stimulated lymphocyte proliferation: 57.6%
Murine CTLL-2 cells; ca. 3.75 μM, coupled to BSA
  average inhibition of CTLL-2 proliferation: 13.4%
Murine CTLL-2 cells; ca. 7.5 μM, coupled to BSA
  average inhibition of CTLL-2 proliferation: 39.8%
Murine CTLL-2 cells; ca. 15 μM, coupled to BSA
  average inhibition of CTLL-2 proliferation: 92.8%
Human lymphocytes
  inhibition of [^125 I]-CKS-17-BSA binding by excess unlabelled material: binding could be inhibited

## Glu-Val-Val-Leu-Glnpartial Asn-Arg-Arg-Gly-Leu-Asp-Leu-Leu (chain 1 EVVLQ; chain 2 NRRGLDLL; printed: Glu-Val-Val-Leu-Gln; printed: Asn-Arg-Arg-Gly-Leu-Asp-Leu-Leu) [SP-9]
Murine CTLL-2 cells
  effect upon CTLL-2 cell proliferation: little or no effect
Human monocytes; dilution 1:20
  O2^- Release: 10.6 ± 0.3 nmoles/5 minues/1.2 × 10^6 mon
Human monocytes; dilution 1:40
  O2^- Release: 12.4 ± 0.5 nmoles/5 minues/1.2 × 10^6 mon

## LQARILAVERYLKDQQL [CS-3]
[1]; 3.75 μM
  average inhibition of human two-way MLC: 44.5%
[1]; 7.5 μM
  average inhibition of human two-way MLC: 74.0%
[1]; 15 μM
  average inhibition of human two-way MLC: 88.5%
[2]; ca. 3.75 μM
  average inhibition of OKT3-stimulated lymphocyte proliferation: 23.2%
[2]; ca. 7.5 μM
  average inhibition of OKT3-stimulated lymphocyte proliferation: 33.4%
[2]; ca. 15 μM
  average inhibition of OKT3-stimulated lymphocyte proliferation: 40.4%
Murine CTLL-2 cells; ca. 3.75 μM, coupled to BSA
  average inhibition of CTLL-2 proliferation: 3.5%
Murine CTLL-2 cells; ca. 7.5 μM, coupled to BSA
  average inhibition of CTLL-2 proliferation: 23.2%
Murine CTLL-2 cells; ca. 15 μM, coupled to BSA
  average inhibition of CTLL-2 proliferation: 81.8%
Human lymphocytes
  inhibition of [^125 I]-CKS-17-BSA binding by excess unlabelled material: binding could be inhibited

## LQNRRGLDLLFLKEGGL [CKS-17]
[1]; dilution 1:20
  average inhibition of human two-way MLC (mean±SEM): 92±2
[1]; dilution 1:40
  average inhibition of human two-way MLC (mean±SEM): 64±11
[1]; dilution 1:80
  average inhibition of human two-way MLC (mean±SEM): 18±3
[3]
  inhibition when peptide is added 24 hr. after the mitogen: comparable levels of inhibition
Immunization of rabbits
  antibodies elicited by immunization of rabbits: elicited antibodies which react with free peptide and the native viral protein
[4]; dilution 1:20
  average inhibition of murine MLC response (mean±SEM): 94±2%
[4]; dilution 1:30
  average inhibition of murine MLC response (mean±SEM): 74±4%
[4]; dilution 1:80
  average inhibition of murine MLC response (mean±SEM): 48±9%
[4]; five-day MLC
  effect on five-day murine MLC reactions: blocked
Balb/3T3 fibroblasts
  effect upon ^3H-thymidine incorporation: no effect
Murine CTLL-2 cells; dilution 1:20, coupled to BSA
  average inhibition of CTLL-2 cell proliferation: 49.6%
Murine CTLL-2 cells; dilution 1:40, coupled to BSA
  average inhibition of CTLL-2 cell proliferation: 22.0%
Murine CTLL-2 cells; dilution 1:80, coupled to BSA
  average inhibition of CTLL-2 cell proliferation: 9.4%
Murine CTLL-2 cells; CTLL-2 cells, coupled to BSA
  short term toxic effect, trypan blue dye exclusion: not due to either a short term toxic effect
Murine CTLL-2 cells; Expt. 1, dilution 1:20 (ca. 7.3 μM), coupled to BSA
  % inhibition of CTLL-2 proliferation: 76%
Murine CTLL-2 cells; Expt. 1, dilution 1:20, coupled to BSA
  ^3H-TdR incorporation, CPM ± SD of quadruplicate samples: 15,255 ± 277 CPM
Murine CTLL-2 cells; [7]
  % inhibition of CTLL-2 proliferation: 34%
  ^3H-TdR incorporation, CPM ± SD of quadruplicate samples: 42,827 ± 1386 CPM
Murine CTLL-2 cells; [8]
  % inhibition of CTLL-2 proliferation: 7%
  ^3H-TdR incorporation, CPM ± SD of quadruplicate samples: 60,005 ± 1425 CPM
Murine CTLL-2 cells; Expt. 2, dilution 1:20 (ca. 7.3 μM), coupled to BSA
  % inhibition of CTLL-2 proliferation: 64%
Murine CTLL-2 cells; Expt. 2, dilution 1:20, coupled to BSA
  ^3H-TdR incorporation, CPM ± SD of quadruplicate samples: 10,950 ± 2171 CPM
Murine CTLL-2 cells; [9]
  % inhibition of CTLL-2 proliferation: 24%
  ^3H-TdR incorporation, CPM ± SD of quadruplicate samples: 23,128 ± 3288 CPM
Murine CTLL-2 cells; [10]
  % inhibition of CTLL-2 proliferation: 1%
  ^3H-TdR incorporation, CPM ± SD of quadruplicate samples: 29,980 ± 3490 CPM
Murine CTLL-2 cells; ca. 15 μM, coupled to BSA
  incubation required for maximal inhibition of CTLL-2 cell proliferation: 16 h
Murine CTLL-2 cells; coupled to BSA
  reversal of inhibition by increasing the concentration of IL-2 twenty-fold: could not be reversed
Murine CTLL-2 cells; free (unconjugated) peptide
  effect upon the CTLL-2 cells: no effect
[5]; Expt. 1, dilution 1:10
  % inhibition of Con A stimulated proliferation: 88%
  ^3H-TdR incorporation, CPM ± SD of quadruplicate samples: 11,170 ± 3572 CPM
[5]; Expt. 1, dilution 1:20
  % inhibition of Con A stimulated proliferation: 58%
  ^3H-TdR incorporation, CPM ± SD of quadruplicate samples: 38,132 ± 11,989 CPM
[5]; Expt. 1, dilution 1:40
  % inhibition of Con A stimulated proliferation: 58%
  ^3H-TdR incorporation, CPM ± SD of quadruplicate samples: 38,085 ± 10,678 CPM
[5]; Expt. 1, dilution 1:80
  % inhibition of Con A stimulated proliferation: 48%
  ^3H-TdR incorporation, CPM ± SD of quadruplicate samples: 46,815 ± 601 CPM
[5]; Expt. 2, dilution 1:10
  % inhibition of Con A stimulated proliferation: 66%
  ^3H-TdR incorporation, CPM ± SD of quadruplicate samples: 34,601 ± 3914 CPM
[5]; Expt. 2, dilution 1:20
  % inhibition of Con A stimulated proliferation: 38%
  ^3H-TdR incorporation, CPM ± SD of quadruplicate samples: 62,445 ± 3602 CPM
[5]; Expt. 2, dilution 1:40
  % inhibition of Con A stimulated proliferation: 17%
  ^3H-TdR incorporation, CPM ± SD of quadruplicate samples: 83,154 ± 4422 CPM
[5]; Expt. 2, dilution 1:80
  % inhibition of Con A stimulated proliferation: 5%
  ^3H-TdR incorporation, CPM ± SD of quadruplicate samples: 95,395 ± 45 CPM
[5]; text: 1:20 dilution (ca. 7.5μM)
  incorporation of ^3H-thymidine blocked: up to 88%
[6]
  cell types bound: binds to T4^+ and T8^+ lymphocytes, B cells, NK cells and phagocytes
Human lymphocytes
  inhibition of [^125 I]-CKS-17-BSA binding by excess unlabelled material: binding could be inhibited
NIH/3T3 fibroblasts
  effect upon ^3H-thymidine incorporation: no effect
Human monocytes; dilution 1:20
  O2^- Release: 6.0 ± 0.5 nmoles/5 minues/1.2 × 10^6 mon
Human monocytes; dilution 1:40
  O2^- Release: 8.3 ± 0.5 nmoles/5 minues/1.2 × 10^6 mon

## PPFSLSPVPTL [SP-70]
Murine CTLL-2 cells
  effect upon CTLL-2 cell proliferation: little or no effect
Human monocytes; dilution 1:20
  O2^- Release: 10.7 ± 0.5 nmoles/5 minues/1.2 × 10^6 mon
Human monocytes; dilution 1:40
  O2^- Release: 11.6 ± 0.2 nmoles/5 minues/1.2 × 10^6 mon

## PVMHPHGAPPNHRPWGMKNLQAIK [SP-16]
Murine CTLL-2 cells
  effect upon CTLL-2 cell proliferation: little or no effect
Human monocytes; dilution 1:20
  O2^- Release: 9.8 ± 0.2 nmoles/5 minues/1.2 × 10^6 mon
Human monocytes; dilution 1:40
  O2^- Release: 12.4 ± 0.6 nmoles/5 minues/1.2 × 10^6 mon

## QYAAQNRRGLDLL [SP-74]
Murine CTLL-2 cells
  effect upon CTLL-2 cell proliferation: little or no effect
Human monocytes; dilution 1:20
  O2^- Release: 10.7 ± 0.4 nmoles/5 minues/1.2 × 10^6 mon
Human monocytes; dilution 1:40
  O2^- Release: 12.5 ± 0.5 nmoles/5 minues/1.2 × 10^6 mon
